PMC4844649, “A first-in-Asian phase 1 study to evaluate safety, pharmacokinetics and clinical activity of VS-6063, a focal adhesion kinase (FAK) inhibitor in Japanese patients with advanced solid tumors” (Cancer Chemotherapy and Pharmacology, 2016)
“And” between values parts separate entries of the source, which are not always exact repeats. Equal values may be shown once. “Also recorded” adds a separate entry of the source. Read-outs that look alike come from different tables or passages of the source.

Experiments:
[1] = phase 1 plasma pharmacokinetics, Cycle 1 Days 1 and 15; format: in vivo, human; details: for V z, individual values: Day 15, N = 2, individual values are presented; for half-life / Cmax / AUC(0-t) / Tmax / AUC(0-inf): human, plasma; for AUC(0-t): read-out: AUC0–12h, GM (CV %)
Procedure: Pharmacokinetic samples were to be collected for determination of VS-6063 concentration and potential metabolites at the time points of Pre-dose (within 30 min of VS-6063 dosing), postdose (15 min, 30 min, and 1, 2, 4, 8, 12, and 24 h after VS-6063 administration) during Cycle 1 on Days 1 and 15. The analytical laboratory measured plasma concentrations using a validated method. Phoenix WinNonlin (v 6.3, Pharsight Inc., Mountain View, CA) was used to estimate all pharmacokinetic parameters using the non-compartmental analysis tool and the plasma model. Cmax and Tmax were determined by direct assessment (no calculations) of the concentration versus time data. All AUC calculations followed the linear trapezoidal rule. As data permitted, the terminal elimination rate constant (lambda z, λz) for VS-6063 data was calculated. Lambda z was determined by the slope of the regression line of the natural log transformed concentrations versus time with at least three data points not including the Cmax and a correlation coefficient (R^2) of regression >0.90. In instances where the λz range was not at least twofold greater than the calculated half-life, the resulting values (AUCINF, CL/F and Vz/F) were deemed unreliable and were not reported, although the half-life will be calculated and reported if the λz range met the R^2 requirements. The following PK parameters were to be calculated: oral clearance (CL/F), maximum concentration (Cmax), Tmax, half-life (T1/2), area under the curve (AUC), and other relevant parameters.

[2] = 24-h urine collection, elimination of VS-6063 and metabolites; format: in vivo, human; details: all dose cohorts
Text: To assess the elimination of VS-6063 and its potential metabolites, total 24-h urine output was to be collected on Cycle 1 Day 1 and Cycle 1 Day 15 in conjunction with PK sampling.

[3] = system: advanced solid tumor malignancies; assay: antitumor activity by RECIST v1.1; format: in vivo, human
Procedure: This was a phase 1, open-label, dose-escalation study to evaluate the safety and PK of VS-6063, a FAK inhibitor in Japanese subjects with advanced solid tumor malignancies. This study was expected to enroll up to 18 evaluable subjects with non-hematologic malignancies if 6 subjects were assigned at each of the 3 planned dose levels of 200, 400, and 600 mg BID. VS-6063 was administered orally, BID, in continuous 21 day cycles. Subject enrollment proceeded according to a standard 3 + 3 design. In the absence of DLT, each subject received oral VS-6063 (BID) for a minimum of 21 days of continuous daily dosing (1 cycle) and could continue to receive additional cycles of study treatment until disease progression was documented or other treatment discontinuation criteria were met. All patients within a cohort were required to complete 1 cycle (21 days) of dosing with <1 of 3 or <2 of 6 subjects experiencing a DLT prior to escalation to the next dose level in a new cohort. Three subjects were to be treated at each dose level until the first instance of DLT, after which up to 6 subjects were to be treated at that dose level. […] The MTD was defined as the highest dose level studied at which <1 subject out of 3 or <2 subjects out of 6 experienced a DLT. The RP2D was to be determined in discussion among the sponsor, medical monitor, and investigators. Observations related to PK and any VS-6063-related toxicities were included in the rationale supporting the RP2D. Safety and tolerability was assessed by the incidence and severity of AEs as determined by National Cancer Institute (NCI) Common Terminology Criteria for Adverse Events (CTCAE v4.03). The antitumor activity of study treatment was assessed according to the Response Evaluation Criteria in Solid Tumors (RECIST v1.1).

[4] = preclinical; no reference given; cited from earlier work
[5] = basis of the BID schedule; first-in-human experience; cited from earlier work
[6] = po, 200 mg, 200 mg BID oral, n = 3, Day 1
[7] = po, 200 mg, 200 mg BID oral, n = 3, Day 15
[8] = po, 400 mg, 400 mg BID oral, n = 3, Day 1
[9] = po, 400 mg, 400 mg BID oral, n = 3, Day 15
[10] = po, 600 mg, 600 mg BID oral, n = 3, Day 1
[11] = po, 600 mg, 600 mg BID oral, n = 3, Day 15

SMILES: CNC(=O)c1ccc(Nc2ncc(C(F)(F)F)c(NCc3nccnc3N(C)S(C)(=O)=O)n2)cc1 [VS-6063, defactinib]
- V z, individual values ([1]; 200 mg BID oral): 334 L and 99.6 L
- exposure compared with that previously reported in non-Japanese subjects ([1]; 400 mg BID (RP2D)): comparable; also recorded: consistent with previously reported data in non-Japanese patients; also recorded: comparable to that previously reported in non-Japanese patients
- V z, individual values ([1]; 600 mg BID oral): 158 L and 3060 L
- increase in exposure at doses above 400 mg BID ([1]; 600 mg versus 400 mg BID): did not result in a significant increase in VS-6063 exposure
- dose proportionality of plasma exposure (Cmax and AUC) ([1]; 200–600 mg BID): less than dose proportional
- half-life ([1]; oral, 200–600 mg BID, Days 1 and 15, read-out: median half-life values, range across all dose regimens and both PK study days): 2.3 to 4.3 h
- Cmax [1, 6]: 630 ng/mL
- AUC(0-t) [1, 6]: 3780 ng·h/mL
- Tmax ([1]; po, 200 mg, 200 mg BID oral, n = 3, Day 1, read-out: T max, median (range)): 2 h
- half-life ([1]; po, 200 mg, 200 mg BID oral, n = 3, Day 1, read-out: t 1/2, median (range) (converted)): 4.3 h
- Cmax [1, 7]: 930 ng/mL
- AUC(0-t) [1, 7]: 6240 ng·h/mL
- Tmax ([1]; po, 200 mg, 200 mg BID oral, n = 3, Day 15, read-out: T max, median (range)): 2 h
- half-life ([1]; po, 200 mg, 200 mg BID oral, n = 3, Day 15, read-out: t 1/2, median (range) (converted)): 2.95 h
- Cmax [1, 8]: 670 ng/mL
- AUC(0-t) [1, 8]: 3370 ng·h/mL
- Tmax ([1]; po, 400 mg, 400 mg BID oral, n = 3, Day 1, read-out: T max, median (range)): 2 h
- half-life ([1]; po, 400 mg, 400 mg BID oral, n = 3, Day 1, read-out: t 1/2, median (range) (converted)): 2.45 h
- Cmax [1, 9]: 960 ng/mL
- AUC(0-t) [1, 9]: 5710 ng·h/mL
- Tmax ([1]; po, 400 mg, 400 mg BID oral, n = 3, Day 15, read-out: T max, median (range)): 2 h
- half-life ([1]; po, 400 mg, 400 mg BID oral, n = 3, Day 15, read-out: t 1/2, median (range) (converted)): 3 h
- Cmax [1, 10]: 610 ng/mL
- AUC(0-t) [1, 10]: 2680 ng·h/mL
- Tmax ([1]; po, 600 mg, 600 mg BID oral, n = 3, Day 1, read-out: T max, median (range)): 2 h
- half-life ([1]; po, 600 mg, 600 mg BID oral, n = 3, Day 1, read-out: t 1/2, median (range) (converted)): 2.79 h
- Cmax [1, 11]: 980 ng/mL
- AUC(0-t) [1, 11]: 4880 ng·h/mL
- Tmax ([1]; po, 600 mg, 600 mg BID oral, n = 3, Day 15, read-out: T max, median (range)): 2 h
- half-life ([1]; po, 600 mg, 600 mg BID oral, n = 3, Day 15, read-out: t 1/2, median (range) (converted)): 2.27 h
- Tmax ([1]; po, oral doses of 200–600 mg BID, all cohorts, read-out: Tmax range): 0.5 to 4 h
- Tmax ([1]; po, oral doses of 200–600 mg BID, all cohorts, read-out: median Tmax): 2 h
- AUC(0-inf) ([1]; 200 mg BID oral, n = 3, Day 1): 4390 ng·h/mL
- AUC(0-inf) ([1]; 400 mg BID oral, n = 3, Day 1): 3840 ng·h/mL
- AUC(0-inf) ([1]; 600 mg BID oral, n = 3, Day 1): 3000 ng·h/mL
- detection in urine [2]: detected in the urine of all patients
- amount in urine, percent relative to the total dose administered, range ([2]; 24-h urine): 0.0439 to 0.356%
- CL renal ([2]; human, oral, 24-h urine, Days 1 and 15, read-out: mean renal clearance (CLr), range): 1.43 to 2.98 mL/min
- median time to disease progression, range across dose cohorts ([3]; 200, 400, 600 mg cohorts): 61 to 64 days
- objective radiographic responses ([3]; 200–600 mg BID): No objective radiographic responses were observed
- best response overall: stable disease ([3]; out of 9 subjects (33 %), 1 subject in each dose cohort): 3 subjects
- durable stable disease ([3]; two subjects (malignant mesothelioma 400 mg and rectal cancer 600 mg)): approximately 24 weeks
- potential target organs in toxicology studies [4]: liver and gall bladder, gastrointestinal tract, hematopoietic system, testes/epididymis, and cardiovascular system
- observed human half-life [5]: 9.0 h
